Measurements taken from US12441703B2, “Carboxamides as modulators of sodium channels” (VERTEX PHARMACEUTICALS INCORPORATED, priority 2019, dated 2025).
pIC50: −log10 of the molar value.

target: human NaV 1.8 (Homo sapiens, UniProt Q9Y5Y9); assay: E-VIPR assay for detecting and measuring NaV inhibition properties; type: cell-based; conditions: E-VIPR assay conducted in the absence of human serum (compounds marked *); HEK cells expressing truncated human NaV 1.8; read-out: IC50
In short: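 HEK cells with truncated human NaV1.8 plus KIR2.1 BacMam, hexyl dye loaded 20 min, compound 30 min at room temperature, 11-point 3-fold series […], 0.625% DMSO, with or without human serum. E-VIPR biphasic stimulation at 10 Hz for 10 s; membrane-potential response read as normalized coumarin/oxonol ratio.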

Chain of human NaV 1.8 (Q9Y5Y9 whole entry, looked up, the tested form may be a part): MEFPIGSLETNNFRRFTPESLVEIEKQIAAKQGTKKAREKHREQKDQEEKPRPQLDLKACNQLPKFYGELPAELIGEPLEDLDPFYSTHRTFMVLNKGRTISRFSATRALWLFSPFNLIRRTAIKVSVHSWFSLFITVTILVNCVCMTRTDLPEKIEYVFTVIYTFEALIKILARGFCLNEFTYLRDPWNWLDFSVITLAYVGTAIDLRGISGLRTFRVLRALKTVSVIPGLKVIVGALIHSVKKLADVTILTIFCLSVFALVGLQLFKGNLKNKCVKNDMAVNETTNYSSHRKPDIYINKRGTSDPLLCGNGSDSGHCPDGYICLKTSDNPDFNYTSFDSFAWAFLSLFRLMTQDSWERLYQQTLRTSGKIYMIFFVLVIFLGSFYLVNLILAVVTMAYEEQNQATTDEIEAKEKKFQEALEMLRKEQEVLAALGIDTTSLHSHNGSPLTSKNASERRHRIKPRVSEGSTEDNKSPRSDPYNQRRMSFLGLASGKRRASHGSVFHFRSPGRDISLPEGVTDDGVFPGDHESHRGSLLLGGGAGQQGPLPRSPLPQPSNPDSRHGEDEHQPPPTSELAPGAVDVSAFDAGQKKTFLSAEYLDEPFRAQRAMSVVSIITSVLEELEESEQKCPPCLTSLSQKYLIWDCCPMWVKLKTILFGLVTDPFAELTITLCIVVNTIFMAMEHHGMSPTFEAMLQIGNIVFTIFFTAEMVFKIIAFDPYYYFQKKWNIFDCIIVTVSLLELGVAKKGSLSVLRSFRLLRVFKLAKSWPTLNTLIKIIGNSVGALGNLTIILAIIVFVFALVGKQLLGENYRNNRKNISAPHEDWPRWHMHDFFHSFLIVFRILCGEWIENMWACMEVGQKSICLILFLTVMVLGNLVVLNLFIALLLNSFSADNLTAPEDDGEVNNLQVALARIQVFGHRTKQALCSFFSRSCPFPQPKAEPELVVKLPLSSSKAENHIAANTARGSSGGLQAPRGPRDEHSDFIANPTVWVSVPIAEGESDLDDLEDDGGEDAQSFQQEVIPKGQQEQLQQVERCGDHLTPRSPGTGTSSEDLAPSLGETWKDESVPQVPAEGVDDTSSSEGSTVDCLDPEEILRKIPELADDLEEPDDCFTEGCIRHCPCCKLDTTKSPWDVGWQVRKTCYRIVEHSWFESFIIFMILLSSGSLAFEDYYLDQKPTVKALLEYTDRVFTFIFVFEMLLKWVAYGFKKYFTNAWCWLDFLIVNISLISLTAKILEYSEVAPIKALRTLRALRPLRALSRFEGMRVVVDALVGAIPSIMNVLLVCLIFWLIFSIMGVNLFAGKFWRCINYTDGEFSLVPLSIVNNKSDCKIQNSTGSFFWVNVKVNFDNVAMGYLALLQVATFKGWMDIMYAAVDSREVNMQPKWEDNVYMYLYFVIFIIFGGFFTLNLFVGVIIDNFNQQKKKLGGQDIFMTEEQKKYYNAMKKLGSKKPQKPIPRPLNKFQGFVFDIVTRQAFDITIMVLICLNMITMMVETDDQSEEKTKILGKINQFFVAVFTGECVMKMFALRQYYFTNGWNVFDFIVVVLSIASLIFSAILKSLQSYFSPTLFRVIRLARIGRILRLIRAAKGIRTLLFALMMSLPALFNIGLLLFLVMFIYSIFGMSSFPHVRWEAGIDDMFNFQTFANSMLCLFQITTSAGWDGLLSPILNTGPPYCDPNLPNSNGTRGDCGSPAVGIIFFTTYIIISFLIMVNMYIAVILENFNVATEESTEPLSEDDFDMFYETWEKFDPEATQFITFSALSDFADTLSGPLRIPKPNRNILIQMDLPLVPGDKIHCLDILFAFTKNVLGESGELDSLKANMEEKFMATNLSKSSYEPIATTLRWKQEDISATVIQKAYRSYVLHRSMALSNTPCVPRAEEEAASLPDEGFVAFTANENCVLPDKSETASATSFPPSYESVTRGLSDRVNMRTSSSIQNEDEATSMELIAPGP

pIC50	Compound
7.12	COc1c(Oc2cnc(C(F)(F)F)c(C)c2C(=O)Nc2ccc(C(N)=O)nc2)ccc(F)c1F [Compound 358, N-(6-carbamoyl-3-pyridyl)-5-(3,4-difluoro-2-methoxy-phenoxy)-3-methyl-2-(trifluoromethyl)pyridine-4-carboxamide]
7.85	COc1cc(OC(F)(F)F)ccc1Oc1cc(F)cc(F)c1C(=O)Nc1ccnc(C(N)=O)c1 [Compound 360, 4-[[2,4-difluoro-6-[2-methoxy-4-(trifluoromethoxy)phenoxy]benzoyl]amino]pyridine-2-carboxamide]
7.36	Cc1c(Oc2ccc(C(F)(F)F)cc2C(=O)Nc2ccnc(C(N)=O)c2)ccc(F)c1F [Compound 361, 4-[[2-(3,4-difluoro-2-methyl-phenoxy)-5-(trifluoromethyl)benzoyl]amino]pyridine-2-carboxamide]
8.70	COc1cc(OC(F)(F)F)ccc1Oc1cc(OC)c(C)c(F)c1C(=O)Nc1ccnc(C(N)=O)c1 [Compound 362, 4-[[2-fluoro-4-methoxy-6-[2-methoxy-4-(trifluoromethoxy)phenoxy]-3-methyl-benzoyl]amino]pyridine-2-carboxamide]
8.52	COc1cc(OC(F)(F)F)ccc1Oc1cc(OC)c(C)c(Cl)c1C(=O)Nc1ccnc(C(N)=O)c1 [Compound 363, 4-[[2-chloro-4-methoxy-6-[2-methoxy-4-(trifluoromethoxy)phenoxy]-3-methyl-benzoyl]amino]pyridine-2-carboxamide]
7.34	Cc1nc(C(C)(C)C)cc(Oc2ccc(F)cc2Cl)c1C(=O)Nc1ccnc(C(N)=O)c1 [Compound 364, 6-tert-butyl-N-(2-carbamoyl-4-pyridyl)-4-(2-chloro-4-fluoro-phenoxy)-2-methyl-pyridine-3-carboxamide]
7.89	COc1cc(Oc2ccc(F)cc2Cl)c(C(=O)Nc2cnc(C(N)=O)nc2)c(F)c1C(F)(F)F [Compound 366, 5-[[6-(2-chloro-4-fluoro-phenoxy)-2-fluoro-4-methoxy-3-(trifluoromethyl)benzoyl]amino]pyrimidine-2-carboxamide]
8.30	COc1c(C(F)(F)F)cc(Oc2ccc(F)cc2Cl)c(C(=O)Nc2cc(C(N)=O)ncc2C)c1F [Compound 382, 4-(6-(2-Chloro-4-Fluorophenoxy)-2-Fluoro-3-Methoxy-4-(Trifluoromethyl)Benzamido)-5-Methylpicolinamide]

same assay, conditions: E-VIPR assay conducted in the presence of human serum; HEK cells expressing truncated human NaV 1.8; read-out: IC50

Compound	pIC50
COc1cc(OC(F)(F)F)ccc1Oc1cc(OC)c(C(F)(F)F)c(F)c1C(=O)Nc1ccc(C(N)=O)nc1 [Compound 353, 5-[[2-fluoro-4-methoxy-6-[2-methoxy-4-(trifluoromethoxy)phenoxy]-3-(trifluoromethyl)benzoyl]amino]pyridine-2-carboxamide]	7.76
COc1cc(OC(F)(F)F)ccc1Oc1ccc(C(F)(F)F)c(F)c1C(=O)Nc1cc(C(N)=O)[n+]([O-])cc1C [Compound 354, 4-[[2-fluoro-6-[2-methoxy-4-(trifluoromethoxy)phenoxy]-3-(trifluoromethyl)benzoyl]amino]-5-methyl-1-oxido-pyridin-1-ium-2-carboxamide]	7.52
COc1cc(OC(F)(F)F)ccc1Oc1ccc(C(F)(F)F)c(F)c1C(=O)Nc1cc(C(N)=O)ncn1 [Compound 355, 6-[[2-fluoro-6-[2-methoxy-4-(trifluoromethoxy)phenoxy]-3-(trifluoromethyl)benzoyl]amino]pyrimidine-4-carboxamide]	6.82
COc1cc(OC(F)(F)F)ccc1Oc1ccc(C(F)(F)F)c(F)c1C(=O)Nc1cnnc(C(N)=O)c1 [Compound 356, 5-[[2-fluoro-6-[2-methoxy-4-(trifluoromethoxy)phenoxy]-3-(trifluoromethyl)benzoyl]amino]pyridazine-3-carboxamide]	8.48
COc1cc(OC(F)(F)F)ccc1Oc1ccc(C(F)(F)F)c(F)c1C(=O)Nc1cnc(C(N)=O)nc1 [Compound 357, 5-[[2-fluoro-6-[2-methoxy-4-(trifluoromethoxy)phenoxy]-3-(trifluoromethyl)benzoyl]amino]pyrimidine-2-carboxamide]	7.82
COc1cc(Oc2ccc(OC(F)(F)F)cc2Cl)c(C(=O)Nc2cnc(C(N)=O)nc2)c(F)c1C(F)(F)F [Compound 369, 5-[[6-[2-chloro-4-(trifluoromethoxy)phenoxy]-2-fluoro-4-methoxy-3-(trifluoromethyl)benzoyl]amino]pyrimidine-2-carboxamide]	8.05
COc1cc(Oc2ccc(OC(F)(F)F)cc2Cl)c(C(=O)Nc2ccc(C(N)=O)nc2)c(F)c1C(F)(F)F [Compound 370, 5-[[6-[2-chloro-4-(trifluoromethoxy)phenoxy]-2-fluoro-4-methoxy-3-(trifluoromethyl)benzoyl]amino]pyridine-2-carboxamide]	7.37
COc1c(Oc2ccc(OC3CC3)c(F)c2C(=O)Nc2ccnc(C(N)=O)c2)ccc(F)c1F [Compound 374, 4-[[3-(cyclopropoxy)-6-(3,4-difluoro-2-methoxy-phenoxy)-2-fluoro-benzoyl]amino]pyridine-2-carboxamide]	7.47
COc1c(Oc2cc(C(F)(F)F)c(OC)c(F)c2C(=O)Nc2cc(C(N)=O)ncc2C)ccc(F)c1F [Compound 376, 4-[[6-(3,4-difluoro-2-methoxy-phenoxy)-2-fluoro-3-methoxy-4-(trifluoromethyl)benzoyl]amino]-5-methyl-pyridine-2-carboxamide]	8.05
COc1c(Oc2cc(C(F)(F)F)c(OC)c(F)c2C(=O)Nc2ccc(C(N)=O)nc2)ccc(F)c1F [Compound 377, 5-[[6-(3,4-difluoro-2-methoxy-phenoxy)-2-fluoro-3-methoxy-4-(trifluoromethyl)benzoyl]amino]pyridine-2-carboxamide]	7.68
COc1cc(Oc2ccc(F)c(F)c2OC)c(C(=O)Nc2cnc(C(N)=O)nc2)c(F)c1C(F)(F)F [Compound 380, 5-[[6-(3,4-difluoro-2-methoxy-phenoxy)-2-fluoro-4-methoxy-3-(trifluoromethyl)benzoyl]amino]pyrimidine-2-carboxamide]	7.59
COc1cc(Oc2ccc(F)c(F)c2OC)c(C(=O)Nc2ccc(C(N)=O)nc2)c(F)c1C(F)(F)F [Compound 381, 5-[[6-(3,4-difluoro-2-methoxy-phenoxy)-2-fluoro-4-methoxy-3-(trifluoromethyl)benzoyl]amino]pyridine-2-carboxamide]	7.80
COc1cc(OC(F)(F)F)ccc1Oc1ccc(C(F)(F)F)c(O)c1C(=O)Nc1ccnc(C(N)=O)c1 [Compound 383, 4-[[2-hydroxy-6-[2-methoxy-4-(trifluoromethoxy)phenoxy]-3-(trifluoromethyl)benzoyl]amino]pyridine-2-carboxamide]	< 5.52
[2H]C([2H])([2H])Oc1cc(OC(F)(F)F)ccc1Oc1cc(C2=CCCCC2)cc(F)c1C(=O)Nc1ccnc(C(N)=O)c1 [Compound 1001, 4-[[4-(cyclohexen-1-yl)-2-fluoro-6-[2-(trideuteriomethoxy)-4-(trifluoromethoxy)phenoxy]benzoyl]amino]pyridine-2-carboxamide]	7.72
[2H]C([2H])([2H])Oc1cc(OC(F)(F)F)ccc1Oc1cc(C2=COCCC2)cc(F)c1C(=O)Nc1ccnc(C(N)=O)c1 [Compound 1002, 4-[[4-(3,4-dihydro-2H-pyran-5-yl)-2-fluoro-6-[2-(trideuteriomethoxy)-4-(trifluoromethoxy)phenoxy]benzoyl]amino]pyridine-2-carboxamide]	7.52

The next lines start with the values.

pIC50	Compound
6.39	COc1cc(F)ccc1Oc1cc(C(F)(F)F)nc(C)c1C(=O)Nc1ccnc(C(N)=O)c1 [Compound 351, N-(2-carbamoyl-4-pyridyl)-4-(4-fluoro-2-methoxy-phenoxy)-2-methyl-6-(trifluoromethyl)pyridine-3-carboxamide]
8.74	COc1cc(OC(F)(F)F)ccc1Oc1cc(OC)c(C(F)(F)F)c(F)c1C(=O)Nc1ccnc(C(N)=O)c1 [Compound 352, 4-[[2-fluoro-4-methoxy-6-[2-methoxy-4-(trifluoromethoxy)phenoxy]-3-(trifluoromethyl)benzoyl]amino]pyridine-2-carboxamide]
7.30	COc1cc(Oc2ccc(F)cc2Cl)c(C(=O)Nc2ccnc(C(N)=O)c2)c(F)c1C(F)(F)F [Compound 365, 4-[[6-(2-chloro-4-fluoro-phenoxy)-2-fluoro-4-methoxy-3-(trifluoromethyl)benzoyl]amino]pyridine-2-carboxamide]
6.48	COc1cc(Oc2ccc(F)cc2Cl)c(C(=O)Nc2ccc(C(N)=O)nc2)c(F)c1C(F)(F)F [Compound 367, 5-[[6-(2-chloro-4-fluoro-phenoxy)-2-fluoro-4-methoxy-3-(trifluoromethyl)benzoyl]amino]pyridine-2-carboxamide]
8.30	COc1cc(Oc2ccc(OC(F)(F)F)cc2Cl)c(C(=O)Nc2ccnc(C(N)=O)c2)c(F)c1C(F)(F)F [Compound 368, 4-[[6-[2-Chloro-4-(Trifluoromethoxy)Phenoxy]-2-Fluoro-4-Methoxy-3-(Trifluoromethyl)Benzoyl]Amino]Pyridine-2-Carboxamide]
7.92	COc1cc(Oc2ccc(F)c(F)c2OC)c(C(=O)Nc2ccnc(C(N)=O)c2)c(F)c1C [Compound 372, 4-[[6-(3,4-difluoro-2-methoxy-phenoxy)-2-fluoro-4-methoxy-3-methyl-benzoyl]amino]pyridine-2-carboxamide]
8.22	COc1c(Oc2cc(Cl)c(C)c(F)c2C(=O)Nc2ccnc(C(N)=O)c2)ccc(F)c1F [Compound 373, 4-[[4-chloro-6-(3,4-difluoro-2-methoxy-phenoxy)-2-fluoro-3-methyl-benzoyl]amino]pyridine-2-carboxamide]
7.54	COc1c(Oc2cnc(C(F)(F)F)c(C)c2C(=O)Nc2ccnc(C(N)=O)c2)ccc(F)c1F [Compound 375, N-(2-carbamoyl-4-pyridyl)-5-(3,4-difluoro-2-methoxy-phenoxy)-3-methyl-2-(trifluoromethyl)pyridine-4-carboxamide]
